In US20250263436A1, “BROAD-SPECTRUM ANTIVIRAL DRUG FOR ENTEROVIRUS, AND APPLICATION” (WUHAN INSTITUTE OF VIROLOGY, CHINESE ACADEMY OF SCIENCES, priority 2020, published 2025):
Where “and” joins values, the source holds several entries; their conditions need not be identical. Equal entries are not always repeated. Entries after “also recorded” stand apart in the source; their conditions may differ.

Assays:
[1] = Toxicity assay in RD cells (CCK-8); type: cell-based; conditions: human
Protocol: (§1) (1) Different cells were plated in a 96-well plate at 100 μL per well.
(§2) (2) When the cells grew to a confluence of 70%-80%, the DMEM medium containing 10% serum was replaced with a DMEM medium containing 2% serum, and a certain concentration gradient of polypeptide RQ was added, so that the final concentrations of the polypeptide in the wells were 0.073242 μM, 0.146484 μM, 0.292969 μM, 0.585938 μM, 1.171875 μM, 2.34375 μM, 4.6875 μM, 9.375 μM, 18.75 μM, 37.5 μM, 75 μM, 150 μM, and 300 μM, respectively.
(§3) (3) The samples were collected 24 h after the addition of the polypeptide, and then 10 μL of live cell detection reagent CCK-8 was added to each well and mixed well.
(§4) (4) The plate was placed at 37° C. for 2 h.
(§5) (5) The absorbance value at OD450 was detected by a microplate reader.
(§6) (1) RD cells were plated in a 96-well plate at 100 μL per well.
(§7) (2) When the cells grew to a confluence of 70%-80%, the DMEM medium containing 10% serum was replaced with a DMEM medium containing 2% serum, and B-RQ was added so that the final concentrations in the wells were 0.46 μM, 2.34 μM, 4.68 μM, 9.37 μM, 18.75 μM, 37.5 μM, 75 μM, and 150 μM.

RD cells = assay: Toxicity assay in RD cells (CCK-8); type: cell-based; conditions: RD cells, 24 h
Protocol: as §1, §2, §3, §4, §5, §6, §7

Echo 11 = assay: Inhibition of Echo 11 in RD cells (viral RNA, qRT-PCR); type: cell-based; conditions: inhibiting Echo 11 in RD cells
Protocol: (§8) (1) RD cells were plated in a 24-well plate.
(2) When the cells grew to a confluence of 70%-80%, the DMEM medium containing 10% serum was replaced with a DMEM medium containing 2% serum (the DMEM medium containing 2% serum was added in each well at an amount of 0.5 mL), and 5 μL of Echo 11 virus of 1×10^6 PFU/mL was added to each well.
(§9) (3) After 1 h, the polypeptides with final concentrations of 0.3125 μM, 0.625 μM, 1.25 μM, 2.5 μM, and 5 μM were added respectively. The group without polypeptide added was used as a control.
(4) The samples were collected 24 h after the infection of Echo 11 virus, and RNA was extracted with the total RNA extraction kit.
(§10) (5) The supernatant was discarded, then 350 μL of TRK lysate was added to each well, and the plate was put on a shaker for 5 min.
(§11) (6) 350 μL of 70% ethanol (DEPC) was added to each well, and then the plate was put on a shaker for 5 min.
(§12) (7) The solution in each well was transferred to a RNA extraction column for 1 min of centrifugation at 12000 g.
(§13) (8) The solution obtained in the recovery tube was reloaded on the column again for 1 min of centrifugation at 12000 g.
(§14) (9) RNA washing buffer 1 was added in the column for 30 s of centrifugation at 12000 g. […]
(§15) (14) 2 μL of RNA sample was subjected to a fluorescence quantitative experiment using the one step qRT-PCR kit. […]

CVB3 = assay: Inhibition of CVB3 in RD cells (viral RNA, qRT-PCR); type: cell-based; conditions: inhibiting CVB3 in RD cells
Protocol: as §8
(2) When the cells grew to a confluence of 70%-80%, the DMEM medium containing 10% serum was replaced with a DMEM medium containing 2% serum (the DMEM medium containing 2% serum was added in each well at an amount of 0.5 mL), and 5 μL of CVB3 virus of 1×10^6 PFU/mL was added to each well.
as §9
(4) The samples were collected 24 h after the infection of CVB3 virus, and RNA was extracted with the total RNA extraction kit.
as §10, §11, §12, §13, §14, §15

[2] = tested on: cell-penetrating peptide YGRKKRRQRRR (TAT)

Compound: CC(C)C[C@H](NC(=O)[C@H](C)NC(=O)[C@H](CCC(=O)O)NC(=O)[C@H](CC(C)C)NC(=O)[C@@H](NC(=O)[C@H](C)NC(=O)CNC(=O)[C@@H](NC(=O)[C@H](CO)NC(=O)[C@H](Cc1c[nH]cn1)NC(=O)[C@H](CCCNC(=N)N)NC(=O)[C@H](Cc1c[nH]cn1)NC(=O)[C@H](CC(N)=O)NC(=O)[C@H](Cc1ccc(O)cc1)NC(=O)[C@H](CCC(=O)O)NC(=O)[C@H](CCCNC(=N)N)NC(=O)CNC(=O)[C@H](CO)NC(=O)CNC(=O)[C@H](CCCNC(=N)N)NC(=O)[C@H](CCCNC(=N)N)NC(=O)[C@H](CCCNC(=N)N)NC(=O)[C@H](CCC(N)=O)NC(=O)[C@H](CCCNC(=N)N)NC(=O)[C@H](CCCNC(=N)N)NC(=O)[C@H](CCCCN)NC(=O)[C@H](CCCCN)NC(=O)[C@H](CCCNC(=N)N)NC(=O)CNC(=O)[C@@H](N)Cc1ccc(O)cc1)C(C)C)[C@@H](C)O)C(=O)N[C@@H](Cc1ccccc1)C(=O)N[C@@H](CCC(N)=O)C(=O)O [B-RQ]
- viability at 24 h, 0.46875 µM ([1]; RD cells, B-RQ 0.46875 μM, 24 h, read-out: Cell viability (%)): 99%
- viability at 24 h, 2.34375 µM ([1]; RD cells, B-RQ 2.34375 μM, 24 h, read-out: Cell viability (%)): 99.1%
- viability at 24 h, 4.6875 µM ([1]; RD cells, B-RQ 4.6875 μM, 24 h, read-out: Cell viability (%)): 98.7%
- viability at 24 h, 9.375 µM ([1]; RD cells, B-RQ 9.375 μM, 24 h, read-out: Cell viability (%)): 99.3%
- viability at 24 h, 18.75 µM ([1]; RD cells, B-RQ 18.75 μM, 24 h, read-out: Cell viability (%)): 97.8%
- viability at 24 h, 37.5 µM ([1]; RD cells, B-RQ 37.5 μM, 24 h, read-out: Cell viability (%)): 99.4%
- viability at 24 h, 75 µM ([1]; RD cells, B-RQ 75 μM, 24 h, read-out: Cell viability (%)): 96%
- viability at 24 h, 150 µM ([1]; RD cells, B-RQ 150 μM, 24 h, read-out: Cell viability (%)): 95.5%
- CC50 at 24 h ([1]; Table 1 (RD cells)): > 75000 nM
- Cell viability (%) (RD cells; B-RQ 0.46875 μM): 99.47% and 98.27%
- Cell viability (%) (RD cells; B-RQ 2.34375 μM): 97.93% and 97.19%
- Cell viability (%) (RD cells; B-RQ 4.6875 μM): 100.7775% and 96.97%
- Cell viability (%) (RD cells; B-RQ 9.375 μM): 96.62% and 96.17%
- Cell viability (%) (RD cells; B-RQ 18.75 μM): 97.36%
- Cell viability (%) (RD cells; B-RQ 37.5 μM): 99.64% and 99.24%
- Cell viability (%) (RD cells; B-RQ 75 μM): 95.66%
- Cell viability (%) (RD cells; B-RQ 150 μM): 95.94% and 95.32%
- IC50 (Echo 11): 380 nM
- IC50 (CVB3): 2290 nM

Compound: MBP-EV71 2C protein
- helicase activity (unwinding of HEX-labeled dsRNA substrate, gel electrophoresis) [2]: the control TAT did not affect the helicase activity of 2C (lane 4)
- helicase activity (unwinding of HEX-labeled dsRNA substrate, gel electrophoresis) (polypeptide RQ): the addition of RQ inhibited the helicase activity of 2C (lane 5); also recorded: RQ inhibited the helicase activity of EV71 2C in a dose-dependent manner
